Measured values from PubChem BioAssay AID330 (DTP/NCI, 2004).
“And” between values parts separate entries of the source, which are not always exact repeats. Equal entries are not always repeated. Inconclusive results and toxic doses are left out.

Tested on: P388 leukemia ip, CD2F1 mice, survival T/C
Test: NCI In Vivo Anticancer Drug Screen. Data for tumor model P388 Leukemia (intraperitoneal) in CD2F1 (CDF1) mice
Conditions: endpoint: median survival time, higher = longer survival
Summary of the method: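 Mice carrying the transplanted tumor received test compound or vehicle. Survival was recorded in each group, and the value is the treated-group measurement divided by that of the vehicle-treated control group.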

[1] = dose: 25.0 mg/kg/injection, schedule: Q01DX009 (ip), vehicle: other
[2] = dose: 50.0 mg/kg/injection, schedule: Q01DX009 (ip), vehicle: other
[3] = dose: 100.0 mg/kg/injection, schedule: Q01DX009 (ip), vehicle: other
[4] = dose: 200.0 mg/kg/injection, schedule: Q01DX009 (ip), vehicle: other
[5] = dose: 400.0 mg/kg/injection, schedule: Q01DX009 (ip), vehicle: other
[6] = dose: 50.0 mg/kg/injection, schedule: Q01DX009 (ip), vehicle: suspension in saline
[7] = dose: 100.0 mg/kg/injection, schedule: Q01DX009 (ip), vehicle: suspension in saline
[8] = dose: 200.0 mg/kg/injection, schedule: Q01DX009 (ip), vehicle: suspension in saline
[9] = dose: 50.0 mg/kg/injection, schedule: Q01DX005 (ip), vehicle: saline with Tween-80
[10] = dose: 100.0 mg/kg/injection, schedule: Q01DX005 (ip), vehicle: saline with Tween-80
[11] = dose: 200.0 mg/kg/injection, schedule: Q01DX005 (ip), vehicle: saline with Tween-80
[12] = dose: 60.0 mg/kg/injection, schedule: Q01DX005 (ip), vehicle: saline with Tween-80
[13] = dose: 120.0 mg/kg/injection, schedule: Q01DX005 (ip), vehicle: saline with Tween-80
[14] = dose: 5.0 mg/kg/injection, schedule: Q01DX009 (ip), vehicle: other
[15] = dose: 50.0 mg/kg/injection, schedule: Q01DX009 (ip), vehicle: saline
[16] = dose: 100.0 mg/kg/injection, schedule: Q01DX009 (ip), vehicle: saline
[17] = dose: 200.0 mg/kg/injection, schedule: Q01DX009 (ip), vehicle: saline
[18] = dose: 12.5 mg/kg/injection, schedule: Q01DX009 (ip), vehicle: water
[19] = dose: 25.0 mg/kg/injection, schedule: Q01DX009 (ip), vehicle: water
[20] = dose: 50.0 mg/kg/injection, schedule: Q01DX009 (ip), vehicle: water
[21] = dose: 25.0 mg/kg/injection, schedule: Q01DX009 (ip), vehicle: saline
[22] = dose: 100.0 mg/kg/injection, schedule: Q01DX009 (ip), vehicle: saline with Tween-80
[23] = dose: 200.0 mg/kg/injection, schedule: Q01DX009 (ip), vehicle: saline with Tween-80

CCOC(=O)N1CCc2cc(OC)c(OC)cc2C1(O)Cc1cc(OC)c(OC)cc1Br (configuration not stated)
T/C [1]: 109 % of control | T/C [2]: 106 % of control | T/C [3]: 103 % of control | T/C [4]: 113 % of control | T/C [5]: 113 % of control

COc1ccc(CSC(=S)Nc2ccc(C)c(Cl)c2)cc1
T/C [6]: 106 % of control | T/C [7]: 102 % of control | T/C [8]: 111 % of control

O=C1Nc2c(Cl)cc(Cl)cc2/C1=N/N=C/c1ccco1
T/C [9]: 101 % of control | T/C [10]: 104 % of control | T/C [11]: 104 % of control

BrCc1ccccc1C[P+](c1ccccc1)(c1ccccc1)c1ccccc1
T/C (dose: 1.5 mg/kg/injection, schedule: Q01DX009 (ip), vehicle: saline): 113 % of control | T/C (dose: 3.13 mg/kg/injection, schedule: Q01DX009 (ip), vehicle: saline): 104 % of control

COC(=O)c1nc2nnc(NC(=O)Nc3ccc(Cl)cc3)n2c(-c2ccccc2)c1C
T/C [12]: 96 % of control | T/C [13]: 95 % of control

COc1ccc2c(NCCCCCCNc3c4ccccc4nc4cc(OC)ccc34)c3ccccc3nc2c1
T/C (dose: 0.62 mg/kg/injection, schedule: Q## X009 (ip), vehicle: lactic acid): 151 % of control | T/C (dose: 0.63 mg/kg/injection, schedule: Q01DX009 (ip), vehicle: other): 119 % of control | T/C (dose: 1.25 mg/kg/injection, schedule: Q## X009 (ip), vehicle: lactic acid): 170 % of control | T/C (dose: 2.5 mg/kg/injection, schedule: Q## X009 (ip), vehicle: lactic acid): 170 % of control | T/C [14]: 154 % of control | T/C (dose: 5.0 mg/kg/injection, schedule: Q## X009 (ip), vehicle: lactic acid): 164 % of control | T/C (dose: 10.0 mg/kg/injection, schedule: Q01DX009 (ip), vehicle: other): 110 % of control | T/C (dose: 10.0 mg/kg/injection, schedule: Q## X009 (ip), vehicle: lactic acid): 86 % of control

OC1OC2CCC3C2C2C1C1C4CCC5OC(O)C6C3C2C1C6C54 (configuration not stated)
T/C (dose: 20.0 mg/kg/injection, schedule: Q01DX005 (ip), vehicle: saline with Tween-80): 97 % of control | T/C (dose: 40.0 mg/kg/injection, schedule: Q01DX005 (ip), vehicle: saline with Tween-80): 100 % of control | T/C (dose: 80.0 mg/kg/injection, schedule: Q01DX005 (ip), vehicle: saline with Tween-80): 100 % of control

COc1ccc([N+](=O)[O-])cc1Nc1c2ccccc2nc2ccccc12
T/C [6]: 100 % of control | T/C [7]: 110 % of control | T/C [8]: 101 % of control

OCC1OC(n2ccn(C3OC(CO)C(O)C3O)c2=S)C(O)C1O (configuration not stated)
T/C (dose: 25.0 mg/kg/injection, schedule: Q04DX003 (ip), vehicle: water): 103 % of control | T/C (dose: 50.0 mg/kg/injection, schedule: Q04DX003 (ip), vehicle: water): 111 % of control | T/C (dose: 100.0 mg/kg/injection, schedule: Q04DX003 (ip), vehicle: water): 111 % of control | T/C (dose: 200.0 mg/kg/injection, schedule: Q04DX003 (ip), vehicle: water): 112 % of control | T/C (dose: 400.0 mg/kg/injection, schedule: Q04DX003 (ip), vehicle: water): 111 % of control

Cc1ccc(S(=O)CC(O)CO)cc1 (configuration not stated)
T/C [15]: 95 % of control | T/C [16]: 101 % of control | T/C [17]: 108 % of control

O=C1NCC(COc2ccc([N+](=O)[O-])cc2)O1 (configuration not stated)
T/C (dose: 60.0 mg/kg/injection, schedule: Q01DX005 (ip), vehicle: Klucel (hydroxypropylcellulose) (HPC)): 109 % of control | T/C (dose: 120.0 mg/kg/injection, schedule: Q01DX005 (ip), vehicle: Klucel (hydroxypropylcellulose) (HPC)): 90 % of control | T/C (dose: 240.0 mg/kg/injection, schedule: Q01DX005 (ip), vehicle: Klucel (hydroxypropylcellulose) (HPC)): 93 % of control

O=c1[nH]c(=O)n(C2CCCS2)cc1F (configuration not stated)
T/C (dose: 37.5 mg/kg/injection, schedule: Q01DX009 (ip), vehicle: suspension in saline): 100 % of control | T/C (dose: 75.0 mg/kg/injection, schedule: Q01DX009 (ip), vehicle: suspension in saline): 100 % of control | T/C (dose: 150.0 mg/kg/injection, schedule: Q01DX009 (ip), vehicle: suspension in saline): 97 % of control

CCOc1ccc(Nc2ncnc3sc4c(c23)CCCC4)cc1
T/C [9]: 100 % of control | T/C [10]: 102 % of control | T/C [11]: 109 % of control

CCN(CC)CCCNc1cc(C)nc2c1ccc1c2ccc2c(NCCCN(CC)CC)cc(C)nc21
T/C [18]: 105 % of control | T/C [19]: 103 % of control | T/C [20]: 116 % of control

CCN(CC)c1ccc(Pc2ccc(N(CC)CC)cc2)cc1
T/C (dose: 12.5 mg/kg/injection, schedule: Q01DX009 (ip), vehicle: saline): 104 % of control | T/C [21]: 108 % of control | T/C [15]: 99 % of control and 88 % of control | T/C [17]: 92 % of control

Cn1c(-c2ccc3c(c2)OCO3)nn(CN2CCOCC2)c1=S
T/C (dose: 50.0 mg/kg/injection, schedule: Q01DX005 (ip), vehicle: Klucel (hydroxypropylcellulose) (HPC)): 97 % of control | T/C (dose: 100.0 mg/kg/injection, schedule: Q01DX005 (ip), vehicle: Klucel (hydroxypropylcellulose) (HPC)): 100 % of control | T/C (dose: 200.0 mg/kg/injection, schedule: Q01DX005 (ip), vehicle: Klucel (hydroxypropylcellulose) (HPC)): 107 % of control

COc1cccc2c(NCCCCCCCCNc3c4ccccc4nc4c(OC)cccc34)c3ccccc3nc12
T/C (dose: 1.25 mg/kg/injection, schedule: Q01DX009 (ip), vehicle: lactic acid): 169 % of control | T/C (dose: 2.5 mg/kg/injection, schedule: Q01DX009 (ip), vehicle: lactic acid): 189 % of control | T/C [14]: 154 % of control

NNC(=O)COc1ccc(Br)cc1Br
T/C [12]: 95 % of control | T/C [13]: 97 % of control

Clc1ccc(-c2nc3ccccc3nc2-c2ccc(Cl)cc2)cc1
T/C (dose: 50.0 mg/kg/injection, schedule: Q01DX009 (ip), vehicle: Klucel (hydroxypropylcellulose) (HPC)): 101 % of control | T/C (dose: 100.0 mg/kg/injection, schedule: Q01DX009 (ip), vehicle: Klucel (hydroxypropylcellulose) (HPC)): 111 % of control | T/C (dose: 200.0 mg/kg/injection, schedule: Q01DX009 (ip), vehicle: Klucel (hydroxypropylcellulose) (HPC)): 106 % of control

CCOC(=O)/C(=C\c1cccc(OC)c1OC)CC(=O)O
T/C [1]: 102 % of control | T/C [2]: 107 % of control | T/C [3]: 98 % of control | T/C [4]: 112 % of control | T/C [5]: 111 % of control

Cn1cnc([N+](=O)[O-])c1Sc1ncccn1
T/C (dose: 25.0 mg/kg/injection, schedule: Q01DX009 (ip), vehicle: saline with Tween-80): 106 % of control | T/C [21]: 98 % of control | T/C (dose: 50.0 mg/kg/injection, schedule: Q01DX009 (ip), vehicle: saline with Tween-80): 98 % of control | T/C [15]: 104 % of control and 108 % of control | T/C [22]: 100 % of control | T/C [16]: 108 % of control and 112 % of control | T/C [23]: 106 % of control | T/C [17]: 114 % of control and 122 % of control

COc1cc2cccc(N)c2cc1OC
T/C (dose: 6.25 mg/kg/injection, schedule: Q01DX009 (ip), vehicle: water): 106 % of control | T/C [18]: 114 % of control | T/C [19]: 110 % of control | T/C [20]: 110 % of control

O=C([O-])[O-].O=[N+]([O-])O.[Co+3].[NH2-].[NH2-].[NH2-].[NH2-]
T/C [22]: 122 % of control | T/C [23]: 113 % of control | T/C (dose: 400.0 mg/kg/injection, schedule: Q01DX009 (ip), vehicle: saline with Tween-80): 100 % of control

O=[N+]([O-])c1cnn(Cn2cc([N+](=O)[O-])cn2)c1
T/C (dose: 100.0 mg/kg/injection, schedule: Q04DX003 (ip), vehicle: saline with Tween-80): 109 % of control | T/C (dose: 200.0 mg/kg/injection, schedule: Q04DX003 (ip), vehicle: saline with Tween-80): 116 % of control | T/C (dose: 400.0 mg/kg/injection, schedule: Q04DX003 (ip), vehicle: saline with Tween-80): 120 % of control
